Data published in patent US5580552A, “7-glycosyloxybenzopyran derivative and antiallergic agent containing the derivative as active ingredient” (priority 1994, dated 1996).

Tests used:
[1] = test system: homologous passive cutaneous anaphylaxis (PCA) reaction; experiment: Effect on homologous passive cutaneous anaphylaxis (PCA) reaction in rats; type: in vivo, rats (male wistar); conditions: Rattus norvegicus, po, 0.5 h, 50 mg/kg oral, 1 hour before challenge (TABLE 2)
Method: Effect on homologous passive cutaneous anaphylaxis (PCA) reaction in rats.
This experimental animal model is caused by immediate type allergic reaction namely, antigen-antibody reaction. In the following, the method of this pharmacological test will be explained.
Method: Male wistar rats (9 weeks old) were intradermally administered 0.05 ml of anti-serum against dinitrophenylated ascaris (DNP-As) into two sites on the shaved dorsal skin. 48 hours later, 7-glycosyloxybenzopyran derivatives (test compounds) suspended in 0.5% sodium carboxymethylcellulose (CMCNa) were given orally at a dose of 50 mg/kg to the animals. One hour after administration of Test compounds, the animals were induced anaphylaxis by injection of saline (1 ml) dissolving 5 mg of Evans Blue and 1 mg of Trinitrophenylated ascaris (TNP-As) into the tail vein of the animals. 30 minutes after induction of anaphylaxis, animals were anesthetized by ether and killed by bleeding, and were flayed dorsal skin. The determination of extravasated dye was performed according to the method of Katayama et al. (Microbiol. Immunol., Vol.22, P 89-101, 1978). As vehicle control group, only 0.5% CMCNa solution was administered orally, and as positive control group, Tranilast suspended in 0.5% CMCNa was administered orally at a dose of 100 mg/kg to the animals with the same method as the test compounds groups. Each experimental group consisted of 5 rats. [formula]

[2] = test system: experimental asthma model (airway resistance); experiment: Effect on experimental asthma model in guinea pigs (airway resistance); type: in vivo, guinea pigs (male hartley); conditions: Cavia porcellus, po, 0.5 h, 50 mg/kg oral (TABLE 6)
Method: Effect on experimental asthma model in guinea pigs
The asthma is typical allergic disease and we carried out this pharmacological test by well known experimental asthma model in guinea pigs in order to comfirm that the compounds of the present invention suppress the asthma. In the following, the method of the pharmacological test will be explained.
Method: Male hartley guinea pigs were immunized by intraperitoneal injection of saline (1ml) containing 5 mg of ovalbumine (OVA) three times at interval of one week. 2 weeks after final immunization, the animals were challenged by inhalation of 1% OVA-saline solution for 1 minute and then the airway resistance of the animals were measured for 30 minutes with PULMOS-1 (Medical Interface Project Station Inc.) after the inhalation. The compounds of the present invention (test compounds) suspended in 0.5% CMCNa were given orally at a dose of 50 mg/kg. As positive control group, Disodium Cromoglicate (DSCG), well known anti-allergic agent, in saline were injected at a dose of 20 mg/kg into the vein of the animals. As vehicle control group, only 0.5% CMCNa solution were given orally. The inhibition (%) of the airway resistance in vehicle control group was calculated according to equation 5 and the result was shown in TABLE 6. Each experimental group consisted of 5 guinea pigs. [formula]
A: Maximum airway resistance in vehicle control group
B: Maximum airway resistance in test compounds group or positive control group

[3] = test system: contact dermatitis induced by picryl chloride; experiment: Effect on contact dermatitis induced by picryl chloride in mice; type: in vivo; conditions: Mus musculus, po, 24 h, 50 mg/kg oral, 1 hour before and 16 hours after challenge; 24 hours after challenge; read-out: Inhibition (%) against the increase of ear thickness
Method: Effect on contact dermatitis induced by picryl chloride in mice
The delayed type hypersensitization is inhibited by steroid drugs,but can not be effected by known anti-allergic agents. In the following, the method of the pharmacological test will be explained.
Method: Mice, shaved their abdominal skin on previous day, were immunized by applying 0.1 ml of acetone containing 7 mg of picryl chloride to the skin of the abdomen. 7 days after immunization, the thickness of the ear was measured with a dial thickness gauge, then mice were challenged by painting 5 μl of 1% picryl chloride olive oil solution to each side skin of left ear. 24 hours after challenge, the thickness of the left ear was measured again and the increase (%) of thickness was calculated according to equation 2. The compounds of the present invention (test compounds) suspended in 0.5% CMCNa were forcibly administered orally at a dose of 50 mg/kg at 1 hour before and 16 hours after challenge. As vehicle control group, only 0.5% CMCNa solution were administered orally, and as positive control group, Prednisolone, steroid hormone, and Tranilast were administered orally at the doses of 10 mg/kg and 100 mg/kg, respectively.
Increase (%)=(A-B)/B×100 (Equation 2)
A: thickness of the ear at 24 hours after challenge
B: thickness of the ear before challenge
Inhibition (%)=(C-D)/C×100 (equation 3)
C: The increase (%) in vehicle control group
D: The increase (%) in test compounds group or positive control group

SMILES	inhibition in vivo at 50 mg/kg [1] [%]	inhibition in vivo at 50 mg/kg [2] [%]	inhibition in vivo at 50 mg/kg [3] [%]
C=COc1c(O)c2ccc(O[C@@H]3O[C@H](CO)[C@@H](O)[C@H](O)[C@H]3O)cc2oc1=O [compound 44]	54.5	65.1	56.3
CCC=CCCOc1c(O)c2ccc(O[C@@H]3O[C@H](CO)[C@@H](O)[C@H](O)[C@H]3O)cc2oc1=O [compound 45]	55.2	62.3	54.2
CC(C)=CCC/C(C)=C/COc1c(O)c2ccc(O[C@@H]3O[C@H](CO)[C@@H](O)[C@H](O)[C@H]3O)cc2oc1=O [compound 46]	54.3	63.4	57.6
O=c1oc2cc(O[C@@H]3O[C@H](CO)[C@@H](O)[C@H](O)[C@H]3O)ccc2c(O)c1OCc1ccccc1 [compound 47]	52.1	59.1	51.9
O=c1oc2cc(O[C@H]3O[C@H](CO)[C@@H](O)[C@H](O)[C@@H]3O)ccc2c(O)c1O [compound 61]	40.2	45.2	43.1
CCCCOc1c(O)c2ccc(O[C@H]3O[C@H](CO)[C@@H](O)[C@H](O)[C@@H]3O)cc2oc1=O [compound 62]	53.2	50.1	49.3
CCCCCCOc1c(O)c2ccc(O[C@H]3O[C@H](CO)[C@@H](O)[C@H](O)[C@@H]3O)cc2oc1=O [compound 63]	55.7	53.2	53.1
CCCCCCCCOc1c(O)c2ccc(O[C@H]3O[C@H](CO)[C@@H](O)[C@H](O)[C@@H]3O)cc2oc1=O [compound 64]	54.9	57.2	52.6
CCCCCCCCCCOc1c(O)c2ccc(O[C@H]3O[C@H](CO)[C@@H](O)[C@H](O)[C@@H]3O)cc2oc1=O [compound 65]	52.1	49.3	50.3
CCCCCCCCCCCCOc1c(O)c2ccc(O[C@H]3O[C@H](CO)[C@@H](O)[C@H](O)[C@@H]3O)cc2oc1=O [compound 66]	49.3	54.3	51.4
CC(C)Oc1c(O)c2ccc(O[C@H]3O[C@H](CO)[C@@H](O)[C@H](O)[C@@H]3O)cc2oc1=O [compound 67]	50.4	60.2	53.2
CC1CCC(Oc2c(O)c3ccc(O[C@H]4O[C@H](CO)[C@@H](O)[C@H](O)[C@@H]4O)cc3oc2=O)CC1 (stereo partly drawn) [compound 68]	49.5	63.5	47.3
C=COc1c(O)c2ccc(O[C@H]3O[C@H](CO)[C@@H](O)[C@H](O)[C@@H]3O)cc2oc1=O [compound 69]	48.1	59.3	49.9
CCC=CCCOc1c(O)c2ccc(O[C@H]3O[C@H](CO)[C@@H](O)[C@H](O)[C@@H]3O)cc2oc1=O [compound 70]	51.3	65.6	52.1
CC(C)=CCC/C(C)=C/COc1c(O)c2ccc(O[C@H]3O[C@H](CO)[C@@H](O)[C@H](O)[C@@H]3O)cc2oc1=O [compound 71]	49.8	63.2	47.4
O=c1oc2cc(O[C@H]3O[C@H](CO)[C@@H](O)[C@H](O)[C@@H]3O)ccc2c(O)c1OCc1ccccc1 [compound 72]	45.2	52.1	42.3
CCCCCCOc1c(OCc2ccccc2)c2ccc(O[C@@H]3O[C@H](COC(C)=O)[C@H](OC(C)=O)[C@H](OC(C)=O)[C@H]3OC(C)=O)cc2oc1=O [compound 75]	45.5	43.5	40.3
CCCCOc1c(O)c2ccc(O[C@@H]3O[C@H](CO)[C@H](O)[C@H](O)[C@H]3O)cc2oc1=O [compound 86]	56.4	73.2	59.4
CCCCCCOc1c(O)c2ccc(O[C@@H]3O[C@H](CO)[C@H](O)[C@H](O)[C@H]3O)cc2oc1=O [compound 87]	60.3	79.5	64.9
CCCCCCCCOc1c(O)c2ccc(O[C@@H]3O[C@H](CO)[C@H](O)[C@H](O)[C@H]3O)cc2oc1=O [compound 88]	61.5	80.2	66.8
CCCCCCCCCCOc1c(O)c2ccc(O[C@@H]3O[C@H](CO)[C@H](O)[C@H](O)[C@H]3O)cc2oc1=O [compound 89]	57.8	77.3	62.3
CCCCCCCCCCCCOc1c(O)c2ccc(O[C@@H]3O[C@H](CO)[C@H](O)[C@H](O)[C@H]3O)cc2oc1=O [compound 90]	54.3	72.1	60.1
CC(C)Oc1c(O)c2ccc(O[C@@H]3O[C@H](CO)[C@H](O)[C@H](O)[C@H]3O)cc2oc1=O [compound 91]	55.5	69.5	59.3
CC1CCC(Oc2c(O)c3ccc(O[C@@H]4O[C@H](CO)[C@H](O)[C@H](O)[C@H]4O)cc3oc2=O)CC1 (stereo partly drawn) [compound 92]	58.9	65.2	57.2
C=COc1c(O)c2ccc(O[C@@H]3O[C@H](CO)[C@H](O)[C@H](O)[C@H]3O)cc2oc1=O [compound 93]	55.2	69.7	56.4
CCC=CCCOc1c(O)c2ccc(O[C@@H]3O[C@H](CO)[C@H](O)[C@H](O)[C@H]3O)cc2oc1=O [compound 94]	53.7	73.2	51.2
CC(C)=CCC/C(C)=C/COc1c(O)c2ccc(O[C@@H]3O[C@H](CO)[C@H](O)[C@H](O)[C@H]3O)cc2oc1=O [compound 95]	54.2	63.2	55.8
O=c1oc2cc(O[C@@H]3O[C@H](CO)[C@H](O)[C@H](O)[C@H]3O)ccc2c(O)c1OCc1ccccc1 [compound 96]	50.1	58.2	48.9
CCCCOc1c(OC(=O)CC)c(=O)oc2cc(O[C@@H]3O[C@H](COC(C)=O)[C@@H](OC(C)=O)[C@H](OC(C)=O)[C@H]3OC(C)=O)ccc12 [compound 99]	40.2	39.2	40.3
O=c1oc2cc(O[C@@H]3O[C@H](CO)[C@@H](O)[C@H](O)[C@H]3O)ccc2c(O)c1O [compound 108]	45.3	50.1	42.4
